This is an account of results in patent US20030224074A1, “Composition for the protection and regeneration of nerve cells containing the extract of Scutellaria Radix” (EUGENBIO INC., priority 2001, published 2003).

Entries after “also recorded” stand apart in the source; their conditions may differ.

One test deals with SH-SY5Y. Nature of the test: Neurite regeneration in human neuroblastoma SH-SY5Y. In kind it is cell-based. Conditions: extract 50 μg/ml, retinoic acid 50 μM. The method, then:
Retinoic acid and NGF inducing neurite growth were used as positive control groups.
(§1) PC12 cells and SH-SY5Y cells were incubated in DMEM supplemented with 10% FBS. In order to differentiate the cells, NGF or retinoic acid was treated in a serum-free medium.
(§2) Retinoic acid (50 μM) and NGF (50 ng/ml) inducing neurite growth were used as positive controls.

A further test concerns PC12 cells. Put plainly: Neurite regeneration and quantitative comparison of neurites in PC12 cell line. The test is classed as cell-based, rat. Conditions: NGF 50 ng/ml, 3 days. On the procedure:
as §1, §2
Subsequently, the length of neurites in each group was measured.
2) Differentiation index was scored as follows: no neurite expression (0), the length of expressed neurites was less than the diameter of cell bodies (1), the length of expressed neurites was similar to the diameter of cell bodies (2), the length of expressed neurites was less than two times as long as the diameter of cell bodies (3), and the length of expressed neurites was more than two times as long as the diameter of cell bodies, or the expressed neurites form synapses together with other nerve cells (4). 200 differentiated cells from each microculture well were defined as one unit, and five units were statistically analyzed.

The test system of the next test is HiB5 cells. Nature of the test: Induction of differentiation of HiB5 neuronal stem cells (neurofilament immunostaining, confocal microscope). In kind it is cell-based, white rat. The method, then:
A positive control group was treated with bFGF to induce the differentiation into nerve cells.
Cell culture medium was prepared by adding a mixture of 10% FBS (fetal bovine serum), penicillin/streptomycin, glutamine and sodium pyruvate (0.11 g/L) to DMEM. On differentiating at 39 C, another cell culture medium was prepared by adding pyruvate to a serum-free medium (N2, containing DMEM/F12, insulin, transferrin, Putreseine and BSA; Botten Stein & Sato., 1979).
Tissue sections were fixed with 4% paraformaldehyde and cryosected to a thickness of […]. The cryosected tissue sections were stained with nerve cell- or astrocyte-labeled antibody and FITC-labeled secondary antibody before examining under a confocal microscope. In order to stain with nerve cell-labeled antibody, cultured cells were fixed with 4% paraformaldehyde for 20 minutes, permeated in 0.5% NP-40 for 5 minutes, and blocked using 1% BSA solution for 30 minutes. […]
The cultured cells were immunostained with nerve cell-specific labeled molecule, and then neurite growth was observed under a confocal microscope. […] The differentiation degree was measured by double-staining neurites with nerve cell-specific labeled molecule (anti-neurofilament antibody) and FITC-labeled secondary antibody (green), followed by staining cell nuclei with propidium iodide (red).

In the case of `CC1=C(/C=C/C(C)=C/C=C/C(C)=C/C(=O)O)C(C)(C)CCC1` [Retinoic acid], in the test with SH-SY5Y, the “Average (%) of differentiated cells” value is 81.59%.

“NGF: Nerve Growth Factor, positive control inducing neurite growth in PC12 cells”: the development of neurites result in the test on PC12 cells is “development of neurites”.

As to “bFGF: basic fibroblast growth factor, positive control inducing differentiation of HiB5 cells into nerve cells”, in the test with HiB5 cells (bFGF 20 ng/ml), the cell survival entry is “increased”. Moreover, the “differentiation into nerve cells” value in the test on HiB5 cells (extract 50 μg/ml or bFGF 20 ng/ml) is “induced the differentiation into nerve cells; also recorded: differentiated into nerve cells”.
